This note sets out measurements from patent USRE49698E1, “Substituted dihydroquinazolines” (AiCuris Anti-infective Cures GmbH, priority 2003, dated 2023).

One data set concerns HCMV. Nature of the data set: Anti-HCMV (anti-human cytomegalovirus) cytopathogenicity test. It is filed as cell-based. The procedure: (§1) Anti-HCMV (Anti-Human Cytomegalovirus) Cytopathogenicity Tests
(§2) The test compounds are employed as 50 millimolar (mM) solutions in dimethyl sulphoxide (DMSO). Ganciclovir®, Foscarnet® and Cidofovir® are used as reference compounds. After addition of in each case 2 μl of the 50, 5, 0.5 and 0.05 mM DMSO stock solutions to 98 μl portions of cell culture medium in row 2 A-H for duplicate determinations, 1:2 dilutions are carried out with 50 μl portions of medium up to row 11 of the 96-well plate. The wells in rows 1 and 12 each contain 50 μl of medium. In 150 μl of a suspension of 1×10^4 cells (human prepuce fibroblasts [NHDF]) are pipetted into each of the wells (row 1=cell control) and, in rows 2-12, a mixture of HCMV-infected and uninfected NHDF cells (M.O.I.=0.001-0.002), i.e. 1-2 infected cells per 1000 uninfected cells. Row 12 (without substance) serves as virus control. The final test concentrations are 250-0.0005 μM. The plates are incubated at 37° C./5% CO2 for 6 days, i.e. until all the cells are infected in the virus controls (100% cytopathogenic effect [CPE]). The wells are then fixed and stained by adding a mixture of formalin and Giemsa's dye (30 minutes), washed with double-distilled water and dried in a drying oven at 50° C. The plates are then assessed visually using an overhead microscope (Plaque Multiplier from Technomara).
The following data can be acquired from the test plates:
SI (selectivity index)=CC50 (NHDF)/EC50 (HCMV).

The nature of data set [1]: Cytostatic effect on NHDF cells in the anti-HCMV cytopathogenicity test plates. The conditions noted are these: human, human prepuce fibroblasts (NHDF cells), 6 days incubation, visual assessment, concentration at which no visible cytostatic effects are evident vs untreated cell control. It is filed as cell-based. The method, then:
as §1, §2
The following data can be acquired from the test plates: […]

[2] abbreviates: Human betaherpesvirus 5, NHDF, 144 h; read-out: HCMV EC50.
Setting [3] is: Human betaherpesvirus 5, NHDF, 144 h, read-out: HCMV EC50.

Structures can show the parent of a compound that is named as a salt. Where two headings read alike, the source gives them in different places.

The EC50 is the concentration needed to bring the measured effect to its halfway point. By CC50 is commonly meant the concentration at which the toxic effect on the cells reaches its halfway point. Low values mean greater toxicity to the cells, high ones lower toxicity to the cells. On to `O=C(O)CC1c2cccc(F)c2N=C(N2CCN(c3ccc(F)cc3)CC2)N1c1cccc(C(F)(F)F)c1` (single isomer, unassigned) [Example 2, {8-Fluoro-2-[4-(4-fluorophenyl)-1-piperazinyl]-3-[3-(trifluoromethyl)phenyl]-3,4-dihydro-4-quinazolinyl}acetic acid], for which, in the data set with HCMV (CC50 (NHDF)/EC50 (HCMV)), the “SI HCMV (selectivity index)” value came out at 750. In the data set with HCMV (setting [2]), the EC50 was 16 nM. This molecule also had a CC50 at 6 days in data set [1] of 12000 nM.

Consider `COc1cccc(N2CCN(C3=Nc4c(F)cccc4C(CC(=O)O)N3c3cc(C(F)(F)F)ccc3OC)CC2)c1` (single isomer, unassigned) [Example 15, {8-Fluoro-2-[4-(3-methoxyphenyl)-1-piperazinyl]-3-[2-methoxy-5-(trifluoromethyl)phenyl]-3,4-dihydro-4-quinazolinyl}acetic acid], for which, in the data set with HCMV (setting [2]), the EC50 amounted to 2 nM.

On to `COc1ccc(Cl)cc1N1C(N2CCN(c3ccc(F)cc3)CC2)=Nc2c(F)cccc2C1CC(=O)O` (single isomer, unassigned) [Example 23, {8-Fluoro-2-[4-(4-fluorophenyl)-1-piperazinyl]-3-[6-methoxy-3-chlorophenyl]-3,4-dihydro-4-quinazolinyl}acetic acid hydrochloride], for which, in the data set with HCMV (CC50 (NHDF)/EC50 (HCMV)), the “SI HCMV (selectivity index)” value is reported as 12632. In the data set on HCMV (setting [3]), the half-maximal effective concentration (EC50) is 2 nM. Moreover, in data set [1], the CC50 at 6 days stood at 24000 nM.

As for `COc1ccc(C(F)(F)F)cc1N1C(N2CCN(c3ccc(F)cc3)CC2)=Nc2c(F)cccc2C1CC(=O)O` (single isomer, unassigned) [Example 19, {8-Fluoro-2-[4-(4-fluorophenyl)-1-piperazinyl]-3-[2-methoxy-5-(trifluoromethyl)phenyl]-3,4-dihydro-4-quinazolinyl}acetic acid], the “SI HCMV (selectivity index)” value in the data set on HCMV (CC50 (NHDF)/EC50 (HCMV)) came to 8947. For the same molecule, the EC50 in the data set on HCMV (setting [2]) was found to be 2 nM. This molecule displayed a CC50 at 6 days in data set [1] of 17000 nM.

Take `NC(=O)c1ccc2c(c1)C(CC(=O)O)N(c1cccc(C(F)(F)F)c1)C(N1CCN(c3cccc(Cl)c3)CC1)=N2` (stereo not shown) [Example 29]: the “SI HCMV (selectivity index)” value with HCMV (CC50 (NHDF)/EC50 (HCMV)) is on record as 671. In the data set on HCMV (setting [2]), the EC50 amounted to 70 nM. Also, the CC50 at 6 days in data set [1] amounted to 47000 nM.

Consider `Cc1cccc(N2CCN(C3=Nc4c(F)cccc4C(CC(=O)O)N3c3cccc(C(F)(F)F)c3)CC2)c1` (single isomer, unassigned) [Example 9, {8-Fluoro-2-[4-(3-methylphenyl)-1-piperazinyl]-3-[3-(trifluoromethyl)phenyl]-3,4-dihydro-4-quinazolinyl}acetic acid hydrochloride], for which, in the data set with HCMV (CC50 (NHDF)/EC50 (HCMV)), the “SI HCMV (selectivity index)” value is given as 750. In the data set with HCMV (setting [3]), the half-maximal effective concentration (EC50) was found to be 20 nM. In data set [1], this molecule registered a CC50 at 6 days of 15000 nM.
